Results reported in patent US20210206817A1, “Metabolically Stable Apelin Analogs in the Treatment of Disease Mediated by the Apelin Receptor” (priority 2014, published 2021).
Read-outs that look alike come from different tables or passages of the source. Where a SMILES comes first, the peptide text is derived from it.

What was measured:
[1] = biological target: T1, rat apelin receptor-EGFP (Rattus norvegicus, UniProt Q9JHG3); test: Inhibition of forskolin-induced cAMP production (HTRF); type: cell-based
T1 construct: expressed in transfected cells
T1 sequence (Q9JHG3 1-377): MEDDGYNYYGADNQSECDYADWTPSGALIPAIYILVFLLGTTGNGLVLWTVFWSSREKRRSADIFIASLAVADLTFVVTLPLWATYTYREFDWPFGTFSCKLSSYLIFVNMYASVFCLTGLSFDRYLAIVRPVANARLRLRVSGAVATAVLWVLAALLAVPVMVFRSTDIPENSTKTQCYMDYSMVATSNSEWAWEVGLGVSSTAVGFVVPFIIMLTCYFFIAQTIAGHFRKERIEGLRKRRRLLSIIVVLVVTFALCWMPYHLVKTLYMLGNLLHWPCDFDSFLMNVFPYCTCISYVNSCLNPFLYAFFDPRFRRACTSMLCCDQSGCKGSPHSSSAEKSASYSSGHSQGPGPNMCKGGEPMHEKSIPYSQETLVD
Protocol: cAMP was quantified using the cAMP dynamic 2 assay kit (Cisbio Bioassays, Codolet, France) based on homogeneous time-resolved fluorescence (HTRF) technology. The stimulation was done in the stimulation buffer (HBSS, 5 mM Hepes, 0.1% BSA stabilizer, 1 mM IBMX, pH 7.4). Briefly, 2,000/well CHO cells stably expressing the rat apelin receptor-EGFP were added into 384-well plate and stimulated with 10^−6 M forskolin (FSK) and increasing concentrations (10^−14 to 10^−4 M) of apelins or its analogs for 30 min at room temperature. Cells were then lyzed, and cAMP levels were determined following manufacturer instructions.

[2] = biological target: T1, rat apelin receptor-EGFP; test: [125I]pE13F radioligand binding on CHO membrane preparations
Protocol: Crude membrane preparation from CHO stably expressing the wild-type rat apelin receptor-EGFP, were prepared as previously described (39). […] The reaction was stopped by adding ice-cold binding buffer and filtered through glass microfiber filters (Whatman GF/C filters). Radioactivity was counted in Wizard 1470 Wallac gamma counter (Perkin Elmer, Turku, Finland).

[3] = biological target: T1, rat apelin receptor-EGFP; test: Apelin receptor-EGFP internalization, confocal microscopy; type: cell-based; details: 1 μM, 20 min
Protocol: The internalization assay was performed as described previously with CHO cells stably expressing the rat apelin receptor-EGFP (43). […] Cells were then mounted in Aquapolymount (Polysciences, Warrington, Pa., USA) for confocal microscopic analysis (Sec (42) for details).

[4] = Table 3, read-out: IC50 cAMP inhibition
[5] = Table 3, read-out: Ki nM ± SEM (15.11.2013)
[6] = competition with [125I]pE13F, CHO membranes, read-out: Ki for the apelin receptor (affinity)
[7] = 10^−6 M forskolin, read-out: IC50 inhibition of forskolin-induced cAMP production

Ki [2, 6] | IC50 [1, 7] | Compound | IC50 [1, 4] | Ki [2, 5] | induction of apelin receptor internalization [3] | also measured
0.06 ± 0.02 nM | 0.1 ± 0.05 nM | CSCC[C@H](NC(=O)[C@@H]1CCCN1C(=O)CNC(=O)[C@H](CCCCN)NC(=O)[C@H](Cc1c[nH]cn1)NC(=O)[C@H](CO)NC(=O)[C@H](CC(C)C)NC(=O)[C@H](CCCNC(=N)N)NC(=O)[C@@H]1CCCN1C(=O)[C@H](CCCNC(=N)N)NC(=O)[C@@H]1CCC(=O)N1)C(=O)N1CCC[C@H]1C(=O)N[C@@H](Cc1ccc(Br)cc1)C(=O)O [pE13(4Br-Phe^13)] |  |  | potent inducers of apelin receptor internalization | 
4.3 ± 1.8 nM | 43 ± 12 nM | CSCC[C@H](NC(=O)[C@@H]1CCCN1C(=O)[C@@H](C)NC(=O)[C@H](CCCCN)NC(=O)[C@H](Cc1c[nH]cn1)NC(=O)[C@H](CO)NC(=O)[C@H](CC(C)C)NC(=O)[C@H](CCCNC(=N)N)NC(=O)[C@@H]1CCCN1C(=O)[C@H](CCCNC(=N)N)NC(=O)[C@@H]1CCC(=O)N1)C(=O)N1CCC[C@H]1C(=O)N[C@@H](Cc1ccccc1)C(=O)O [pE13F(D-Ala^9)] (HELM PEPTIDE1{[Glp].R.P.R.L.S.H.K.[dA].P.M.P.F}$$$$V2.0; C-terminus assumed) |  |  | potent inducers of apelin receptor internalization | 
1.4 ± 0.7 nM | 2.4 ± 1.4 nM | CSCC[C@H](NC(=O)[C@@H]1CCCN1C(=O)CNC(=O)[C@H](CCCCN)NC(=O)[C@H](Cc1c[nH]cn1)NC(=O)[C@H](CO)NC(=O)[C@H](CC(C)C)NC(=O)[C@H](CCCNC(=N)N)NC(=O)[C@@H]1CCCN1C(=O)[C@H](CCCNC(=N)N)NC(C)=O)C(=O)N1CCC[C@H]1C(=O)N[C@@H](Cc1ccccc1)C(=O)O [Ac—R12F] |  |  | potent inducers of apelin receptor internalization | 

The next lines start with the molecule.

Compound | Ki [2, 6] | IC50 [1, 7] | IC50 [1, 4] | Ki [2, 5] | induction of apelin receptor internalization [3] | also measured
CSCC[C@H](NC(=O)[C@@H]1CCCN1C(=O)CNC(=O)[C@H](CCCCN)NC(=O)[C@H](Cc1c[nH]cn1)NC(=O)[C@H](CO)NC(=O)[C@H](CC(C)C)NC(=O)[C@H](CCCNC(=N)N)NC(=O)[C@@H]1CCCN1C(=O)[C@H](CCCNC(=N)N)NC(=O)[C@H](CCC(N)=O)NC(=O)[C@H](CCCNC(=N)N)NC(=O)[C@H](CCCNC(=N)N)NC(=O)[C@H](Cc1ccccc1)NC(=O)[C@@H](N)CCCCNC(=O)CCC(F)(F)C(F)(F)C(F)(F)C(F)(F)C(F)(F)C(F)(F)C(F)(F)C(F)(F)F)C(=O)N1CCC[C@H]1C(=O)N[C@@H](Cc1ccccc1)C(=O)O [JFM V-0220B] | 0.2 nM |  | 1 ± 0.4 nM | 0.16 ± 0.01 nM |  | 
CSCC[C@H](NC(=O)[C@@H]1CCCN1C(=O)CNC(=O)[C@H](CCCCN)NC(=O)C(C)(C)NC(=O)[C@H](CO)NC(=O)[C@H](CC(C)C)NC(=O)[C@H](CCCNC(=N)N)NC(=O)[C@@H]1CCCN1C(=O)[C@H](CCCNC(=N)N)NC(=O)[C@@H]1CCC(=O)N1)C(=O)N1CCC[C@H]1C(=O)N[C@@H](Cc1ccccc1)C(=O)O [pE13F(Aib^7)] (HELM PEPTIDE1{[Glp].R.P.R.L.S.[Aib].K.G.P.M.P.F}$$$$V2.0; C-terminus assumed) | 2.6 ± 2.3 nM | 1.2 ± 0.6 nM |  |  | potent inducers of apelin receptor internalization | 
CCCCCCCCCCCCCCCC(=O)NCCCC[C@H](N)C(=O)N[C@@H](Cc1ccccc1)C(=O)N[C@@H](CCCNC(=N)N)C(=O)N[C@@H](CCCNC(=N)N)C(=O)N[C@@H](CCC(N)=O)C(=O)N[C@@H](CCCNC(=N)N)C(=O)N1CCC[C@H]1C(=O)N[C@@H](CCCNC(=N)N)C(=O)N[C@@H](CC(C)C)C(=O)N[C@@H](CO)C(=O)N[C@@H](Cc1c[nH]cn1)C(=O)N[C@@H](CCCCN)C(=O)NCC(=O)N1CCC[C@H]1C(=O)N[C@@H](CCSC)C(=O)N1CCC[C@H]1C(=O)N[C@@H](Cc1ccccc1)C(=O)O [JFM V-0220A] |  |  | 2 ± 0.75 nM | 1.43 ± 0.74 nM |  | 
CSCC[C@H](NC(=O)[C@@H]1CCCN1C(=O)CNC(=O)[C@H](CCCCN)NC(=O)[C@H](Cc1c[nH]cn1)NC(=O)[C@H](CO)NC(=O)[C@H](CC(C)C)NC(=O)[C@H](CCCNC(=N)N)NC(=O)[C@@H]1CCCN1C(=O)[C@H](CCCNC(=N)N)NC(=O)[C@H](CCC(N)=O)NC(=O)[C@H](CCCNC(=N)N)NC(=O)[C@H](CCCNC(=N)N)NC(=O)[C@H](Cc1ccccc1)NC(=O)[C@H](CCCCN)NC(=O)[C@@H](N)CCCCNC(=O)CCC(F)(F)C(F)(F)C(F)(F)C(F)(F)C(F)(F)C(F)(F)C(F)(F)C(F)(F)F)C(=O)N1CCC[C@H]1C(=O)N[C@@H](Cc1ccccc1)C(=O)O [JFM V-0210/1] |  |  | 3.8 ± 1 nM | 0.18 ± 0.023 nM |  | 
CCCCCCCCCCCCCCCC(=O)NCCCC[C@H](N)C(=O)N[C@@H](CCCCN)C(=O)N[C@@H](Cc1ccccc1)C(=O)N[C@@H](CCCNC(=N)N)C(=O)N[C@@H](CCCNC(=N)N)C(=O)N[C@@H](CCC(N)=O)C(=O)N[C@@H](CCCNC(=N)N)C(=O)N1CCC[C@H]1C(=O)N[C@@H](CCCNC(=N)N)C(=O)N[C@@H](CC(C)C)C(=O)N[C@@H](CO)C(=O)N[C@@H](Cc1c[nH]cn1)C(=O)N[C@@H](CCCCN)C(=O)NCC(=O)N1CCC[C@H]1C(=O)N[C@@H](CCSC)C(=O)N1CCC[C@H]1C(=O)N[C@@H](Cc1ccccc1)C(=O)O [JFM V-0210/2] |  |  | 1.4 ± 0.5 nM | 1.33 ± 0.15 nM |  | 
CCCC[C@H](NC(=O)[C@@H]1CCCN1C(=O)[C@@H](C)NC(=O)[C@H](CCCCN)NC(=O)C(C)(C)NC(=O)[C@H](CO)NC(=O)[C@@H](CC(C)C)NC(=O)[C@H](CCCNC(=N)N)NC(=O)[C@@H]1CCCN1C(=O)[C@H](CCCNC(=N)N)NC(=O)[C@@H](CCC(N)=O)NC(=O)[C@H](CCCNC(=N)N)NC(=O)[C@H](CCCNC(=N)N)NC(=O)[C@H](Cc1ccccc1)NC(=O)[C@H](CCCCN)NC(C)=O)C(=O)N1CCC[C@H]1C(=O)N[C@@H](Cc1ccc(Br)cc1)C(=O)O [P95, N-Acetyl-Lys-Phe-Arg-Arg-D-Gln-Arg-Pro-Arg-D-Leu-Ser-Aib-Lys-D-Ala-Pro-Nle-Pro-(4-Br)Phe] (HELM PEPTIDE1{[ac].K.F.R.R.[dQ].R.P.R.[dL].S.[Aib].K.[dA].P.[Nle].P.[O=C(O)[C@H](Cc1ccc(Br)cc1)N[*:1]]}$$$$V2.0; C-terminus assumed) | 0.03 nM |  |  |  |  | IC50 ([1]; Table 1, read-out: cAMP production IC50): 0.34 ± 0.36 nM; affinity improved as compared to K17F by a factor [2]: 10; IC50 ([2]; Table 1): 0.03 ± 0.02 nM
CCCC[C@H](NC(=O)[C@@H]1CCCN1C(=O)CNC(=O)[C@H](CCCCN)NC(=O)[C@H](Cc1c[nH]cn1)NC(=O)[C@H](CO)NC(=O)[C@H](CC(C)C)NC(=O)[C@H](CCCNC(=N)N)NC(=O)[C@@H]1CCCN1C(=O)[C@H](CCCNC(=N)N)NC(=O)[C@@H]1CCC(=O)N1)C(=O)N1CCC[C@H]1C(=O)N[C@@H](Cc1ccccc1)C(=O)O [pE13F(Nle^11)] |  |  |  |  | potent inducers of apelin receptor internalization | 
